Key:
rabbit muscle LDH = molecular target: T1, rabbit muscle LDH (Oryctolagus cuniculus, UniProt P13491); assay: Lactate dehydrogenase assay (reduction of 3-fluoropyruvate); format: biochemical; details: 10 IU rabbit muscle LDH, NADH 0.2 mM, 37° C., 24 h, HPLC-MS detection
T1 construct: 10 IU of rabbit muscle LDH (Sigma); purchased Sigma; host or cells: rabbit muscle
Method: A potential reduction of 3-fluoropyruvate to 3-fluoro-2-hydroxypropionate by lactate dehydrogenase (LDH) was measured in vitro using a previously reported protocol (Goncalves et al., Tetrahedron: Asymmetry, 1996, 7, 1237-1240).
Briefly, 14.6 mg of nonradioactive 3-fluorpyruvate were dissolved in 4 mL of double distilled water containing 10 IU of rabbit muscle LDH (Sigma) and 5.3 IU of formate dehydrogenase (Sigma). The reaction was started by adding NADH to a final concentration of 0.2 mM and sodium formate to a final concentration of 40 mM. The final volume was adjusted to 5 mL with double distilled water. The reaction was carried out at 37° C. for 24 h under constant, gentle shaking at 120 rpm. Then, solution was spun through a 10 kDa filter to remove enzymes, and 3-fluoro-2-hydroxypropionate was detected by HPLC-MS using an Accela U(HPLC) equipped with a Luna Phenomenex 250*4.60 HPLC column and an ThermoScientific LTQ—ORBITRAP—XL fitted an electrospray ionization source working in negative mode.

MCT1 = molecular target: T2, MCT1 (Homo sapiens, UniProt P53985); assay: In vivo inhibition of tracer uptake by MCT1 inhibitors, SQD9 tumor-bearing mice (PET/CT); details: 5 mg/Kg IV 10 min before tracer, images 30 min after tracer; SQD9 tumors, liver
T2 construct: the experiment was repeated using SQD9 human laryngeal squamous cell carcinoma cells in mice; endogenous in cells; host or cells: SQD9 xenograft tumours in NMRI nude mice
T2 sequence (P53985 1-500): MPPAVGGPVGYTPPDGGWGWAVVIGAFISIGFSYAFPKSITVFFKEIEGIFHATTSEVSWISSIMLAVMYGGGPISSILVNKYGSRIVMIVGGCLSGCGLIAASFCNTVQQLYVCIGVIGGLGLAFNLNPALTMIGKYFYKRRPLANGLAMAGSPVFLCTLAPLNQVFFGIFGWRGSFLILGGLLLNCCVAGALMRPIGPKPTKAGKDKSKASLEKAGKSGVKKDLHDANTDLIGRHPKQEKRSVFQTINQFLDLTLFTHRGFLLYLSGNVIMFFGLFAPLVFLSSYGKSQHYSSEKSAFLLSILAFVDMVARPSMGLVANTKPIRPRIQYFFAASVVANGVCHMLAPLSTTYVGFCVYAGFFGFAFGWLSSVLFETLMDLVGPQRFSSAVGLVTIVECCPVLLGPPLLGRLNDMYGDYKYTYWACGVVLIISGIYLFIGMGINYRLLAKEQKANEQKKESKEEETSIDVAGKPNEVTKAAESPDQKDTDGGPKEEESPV
T2 sequence (P35613 140-385 partner limits assumed): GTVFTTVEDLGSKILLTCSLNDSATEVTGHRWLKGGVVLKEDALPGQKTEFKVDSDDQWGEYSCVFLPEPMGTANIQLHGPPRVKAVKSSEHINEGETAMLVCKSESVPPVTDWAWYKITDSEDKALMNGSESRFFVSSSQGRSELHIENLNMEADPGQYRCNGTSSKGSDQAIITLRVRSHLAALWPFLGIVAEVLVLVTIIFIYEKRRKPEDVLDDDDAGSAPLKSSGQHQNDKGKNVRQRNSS
Method: In vivo tracer uptake assay. […] In another model, 1,000,000 SQD9 cells in a HBSS:Matrigel 1:1 solution were injected on the back of same 6.5 week-old male NMRI nude mice. Experiments were performed on tumors of ˜10 mm in diameter, i.e., about 3 weeks tumor cell inoculation. […] 2D Regions of interest (ROIs) were manually delineated on PET images using the PMOD software version 3.5 (PMOD technologies Ltd). Tumor localization was determined on PET/CT fused images. Ribcage and skin were used as internal and external limits, respectively. Tracer uptake is expressed as standard uptake value (SUV) calculated on the mean value of voxels within the manually defined 3D volume of interest (VOI).

SiHa cells = assay: In vitro tracer uptake assay, SiHa; format: cell-based, human; details: 6 min after delivery of 45 μCi/ml of the tracer
Text: (§1) Cells and gene silencing. HeLa and SiHa human cervix squamous cell carcinoma and SDQ9 human laryngeal squamous cell carcinoma were from ATCC. Cells were routinely cultured in DMEM (Thermo Fischer) containing glucose (4.5 g/L), Glutamax and 10% FBS. MCT1-deficient and control SiHa cells were produced as previously described (De Saedeleer et al., Oncogene, 2014, 33, 4060-4068), using the following vectors from Open Biosystems: TRCN0000038340 (shMCT1-1) and TRCN0000038339 (shMCT1-2). Control shRNA (shCTR) was Addgene plasmid 1864.
(§2) In vitro tracer uptake assay. A modified version of the ^14C-Lactate uptake assay described by Draoui et al., (Draoui et al., Bioorg Med Chem, 2013, 21, 7107-7117) was used. Briefly, 250,000 cells were plated in flat-bottom 24 well plates (t=0). When cells were attached (t=6 h), medium was replaced by DMEM without glucose and glutamine, containing 10% dialyzed FBS and 10 mM of L-lactate, pH 7.0. Cells were then incubated overnight at 37° C., 5% CO2. On the day of experiment, (t=24 h), cells medium was removed and cells were briefly washed twice with a modified KREBS solution without glucose (HEPES 25 mM, NaCl 120 mM, KCl 4.8 mM, KH2PO4 1.2 mM, MgSO4 1.2 mM, CaCl2 2 mM). […] Cells were lysed with NaOH 0.1 N, and ^18F activity was measured in the cell lysate using a Wiper Gold γ-counter (Laboratory Technologies). Activity is expressed as % of initial dose. […]

HeLa cells = assay: In vitro tracer uptake assay, HeLa; format: cell-based, human; details: 6 min after delivery of 45 μCi/ml of the tracer
Text: as §1, §2

SQD9 cells = assay: In vitro tracer uptake assay, SQD9; format: cell-based, human; details: SQD9, 6 min after delivery of 45 μCi/ml of the tracer
Text: as §1, §2

SiHa tumors = assay: In vivo tracer uptake assay (PET/CT), mice bearing SiHa-shCTR and SiHa-shMCT1 tumors
Method: In vivo tracer uptake assay. All in vivo experiments were performed with approval of UCL Comité d'Ethique pour l'Expérimentation Animale (approval ID 2014/UCL/MD/014) according to national and European animal care regulations. To avoid inter-subject variability, 500,000 SiHa-shCTR and SiHa-shMCT1 cells in a HBSS:Matrigel 1:1 solution were respectively injected in the left and right flank of same 6.5 week-old male NMRI nude mice. In another model, 1,000,000 SQD9 cells in a HBSS:Matrigel 1:1 solution were injected on the back of same 6.5 week-old male NMRI nude mice. Experiments were performed on tumors of ˜10 mm in diameter, i.e., about 3 weeks tumor cell inoculation. For intravenous injection, MCT1 inhibitor AR-C155858 (Tocris) was dissolved in 0.9% NaCl with 10% (2-hydroxypropyl)-β-cyclodextrin at a concentration of 2.5 mg/ml (Vijay et al., Pharm Res, 2015, 32, 1894-1906). For intravenous injection, MCT1 inhibitor AZD3965 (Selleckchem) was first dissolved in pure ethanol at a concentration of 100 mg/ml, then diluted in 0.9% NaCl with 10% (2-hydroxypropyl)-β-cyclodextrin at a final concentration of 2.5 mg/ml. (±)-[^18F]-3-fluoro-2-hydroxypropionate (150-250 μCO was injected in the tail vein of the animals 10 min after the delivery of AR-C155858 (5 mg/Kg), AZD3965 (5 mg/Kg), or vehicle (70 μL). At indicated times, a whole body 10-min static PET imaging (small-animal Mosaic PET Scan system, Philips Medical Systems) directly followed by a 10 min transmission CT scan (NanoSPECT/CT Small Animal Imager, Bioscan; source: 370 MBq ^137Cs; X-Ray tube voltage: 55 kVp; number of projections: 180; exposure time 1000 ms) were performed on isoflurane-anesthetized mice kept at 35° C. PET images were corrected for attenuation and reconstructed using fully 3D iterative algorithm 3D-RAMLA in a 128×128×120 matrix, with a voxel size of 1 mm^3. CT images were reconstructed with a voxel size of 0.221×0.221×0.221 mm^3. 2D Regions of interest (ROIs) were manually delineated on PET images using the PMOD software version 3.5 (PMOD technologies Ltd). Tumor localization was determined on PET/CT fused images. Ribcage and skin were used as internal and external limits, respectively. Tracer uptake is expressed as standard uptake value (SUV) calculated on the mean value of voxels within the manually defined 3D volume of interest (VOI).

SQD9 tumors = assay: In vivo tracer uptake assay (PET/CT), mice bearing SQD9 tumors; details: IV 250 μCi, PET-CT
Method: In vivo tracer uptake assay. All in vivo experiments were performed with approval of UCL Comité d'Ethique pour l'Expérimentation Animale (approval ID 2014/UCL/MD/014) according to national and European animal care regulations. To avoid inter-subject variability, 500,000 SiHa-shCTR and SiHa-shMCT1 cells in a HBSS:Matrigel 1:1 solution were respectively injected in the left and right flank of same 6.5 week-old male NMRI nude mice. In another model, 1,000,000 SQD9 cells in a HBSS:Matrigel 1:1 solution were injected on the back of same 6.5 week-old male NMRI nude mice. Experiments were performed on tumors of ˜10 mm in diameter, i.e., about 3 weeks tumor cell inoculation. For intravenous injection, MCT1 inhibitor AR-C155858 (Tocris) was dissolved in 0.9% NaCl with 10% (2-hydroxypropyl)-β-cyclodextrin at a concentration of 2.5 mg/ml (Vijay et al., Pharm Res, 2015, 32, 1894-1906). For intravenous injection, MCT1 inhibitor AZD3965 (Selleckchem) was first dissolved in pure ethanol at a concentration of 100 mg/ml, then diluted in 0.9% NaCl with 10% (2-hydroxypropyl)-β-cyclodextrin at a final concentration of 2.5 mg/ml. […] Tumor localization was determined on PET/CT fused images. […] Tracer uptake is expressed as standard uptake value (SUV) calculated on the mean value of voxels within the manually defined 3D volume of interest (VOI).

For 3-fluoropyruvate, the “reduction of 3-fluoropyruvate to 3-fluoro-2-hydroxypropionate by LDH” value (rabbit muscle LDH) was “can be reduced to 3-fluoralacate by lactate dehydrogenase (LDH)”.
With Cc1[nH]nc(C(F)(F)F)c1Cc1sc2c(c1C(=O)N1C[C@](C)(O)CO1)c(=O)n(C)c(=O)n2C(C)C [AZD3965] the “change in tracer uptake (SUV) after MCT1 inhibitor” value (MCT1) was “highly significant decrease in tracer uptake in the tumors and liver”.
With O=C(O)C(O)C[18F] (racemic) [(±)-[^18F]-3-fluoro-2-hydroxypropionate, [^18F]-3-fluoro-2-hydroxypropionic acid] the “intracellular 18F dose” value (SiHa cells) was ~0.1 % of the initial dose, the “intracellular 18F dose” value (HeLa cells) was ~0.1 % of the initial dose and the “intracellular 18F dose” value (SQD9 cells) was ~0.3 % of the initial dose. The “bone labeling indicating defluorination” value (SiHa tumors; 30 min after tracer injection) was “no detectable bone labeling”, the “discrimination of SiHa-shCTR and SiHa-shMCT1 tumors by the tracer” value (SiHa tumors; 30 min after tracer injection) was “no apparent discrimination of SiHa-shCTR and SiHa-shMCT1” and the “bone labeling indicating defluorination” value (SiHa tumors; 60 min after tracer injection) was “spinal and joint labeling was detected, indicating that some defluorination had occurred”. The “time of best tumor contrast after tracer injection” value (SiHa tumors; IV 150-250 μCi, PET/CT) was 30 min, the “labeling of other organs (tracer distribution)” value (SiHa tumors; IV 150-250 μCi, PET/CT, 30 min after tracer injection) was “the gut and the liver, were also labeled” and the “route of tracer clearance” value (SiHa tumors; bladder labeling before and after systemic MCT1 inhibition) was “urine is the preferred route”. The “tracer uptake by SQD9 tumors” value (SQD9 tumors) was “the tumors captured and accumulated the tracer”.

— patent US11260036B2, “[18F]-labelled lactate derivative as PET radiotracer” (GRANDIS, priority 2016, dated 2022)
